According to patent US8680102B2, “Pyrrole derivatives, their preparation and their therapeutic application” (Sanofi, priority 2008, dated 2014):

Legend:
[1] = target: T1, CB1 receptors present in the brain (Mus musculus, UniProt P47746); experiment: Measurement (2): ex vivo test of binding of [3H]-CP55940 in the brain; set-up: the CB1 receptors present in the brain in mice; from tissue; host or cells: mouse brain, after intravenous administration; settings: iv route at 10 mg/kg, mice
[2] = target: T2, CB1 receptors present at the periphery (Mus musculus, UniProt P47746); experiment: blocking of the inhibitory effect of CP55940 on the gastrointestinal transit; type: in vivo; settings: po route at 10 mg/kg, mice
T2 construct: from tissue; host or cells: whole mouse, in vivo (peripheral / gastrointestinal CB1)
Protocol: A percentage reversion of the effect of CP55940 greater than 50% at 10 mg/kg indicates a significant antagonist power at the level of the CB1 receptors present at the periphery.

[3] = target: T1, CB1 receptors present in the brain; experiment: Measurement (3): blocking of the hypothermic effect induced by CP55940; type: in vivo; set-up: from tissue; host or cells: whole animal, in vivo (brain CB1); settings: iv route at 10 mg/kg
[4] = Measurement (1): quantification of compound in brain and plasma by LC-MS/MS; type: in vivo; settings: iv route at 3 mg/kg, mouse, read-out: Ratio: Quantity present in the brain / Quantity present in the plasma

T1 sequence (P47746 whole entry): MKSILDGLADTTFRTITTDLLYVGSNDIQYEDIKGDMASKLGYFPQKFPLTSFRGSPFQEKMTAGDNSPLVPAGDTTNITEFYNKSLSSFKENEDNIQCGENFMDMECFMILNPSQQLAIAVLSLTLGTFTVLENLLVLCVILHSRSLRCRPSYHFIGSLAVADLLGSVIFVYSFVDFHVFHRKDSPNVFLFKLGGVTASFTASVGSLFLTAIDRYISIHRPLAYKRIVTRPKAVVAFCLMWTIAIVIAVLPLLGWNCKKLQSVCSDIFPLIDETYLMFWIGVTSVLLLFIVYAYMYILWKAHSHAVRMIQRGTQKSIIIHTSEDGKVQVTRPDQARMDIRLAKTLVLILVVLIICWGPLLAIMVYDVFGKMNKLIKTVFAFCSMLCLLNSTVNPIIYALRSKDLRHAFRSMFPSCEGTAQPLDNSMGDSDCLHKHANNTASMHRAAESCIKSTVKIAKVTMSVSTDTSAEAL
T2 sequence (P47746 whole entry): as above

inhibition at 10 mg/kg [1] [%] | % reversion of the effect of CP55940 on the GIT [2] [%] | % reversion of the hypothermic effect of CP55940 [3] [%] | Kp [4] | Structure (SMILES)
5 | 100 | 58 | – | NC(=O)C1(c2ccccc2)CCN(C(=O)c2cc(-c3ccc(Cl)cc3Cl)n(-c3ccc(Cl)cc3)c2CCCCO)CC1 [compound 13, 1-{[1-(4-chlorophenyl)-5-(2,4-dichlorophenyl)-2-(4-hydroxybutyl)-1H-pyrrol-3-yl]carbonyl}-4-phenylpiperidine-4-carboxamide]
27 | 85 | 60 | – | NC(=O)C1(c2ccccc2)CCN(C(=O)c2cc(-c3ccc(Cl)cc3Cl)n(-c3ccc(Cl)cc3)c2CCO)CC1 [compound 14, 1-{[1-(4-chlorophenyl)-5-(2,4-dichlorophenyl)-2-(2-hydroxyethyl)-1H-pyrrol-3-yl]carbonyl}-4-phenylpiperidine-4-carboxamide]
23 | 97 | 60 | – | NC(=O)C1(N2CCC(F)(F)CC2)CCN(C(=O)c2cc(-c3ccc(Cl)cc3Cl)n(-c3ccc(Cl)cc3)c2CCCCO)CC1 [compound 17, 1′-{[1-(4-chlorophenyl)-5-(2,4-dichlorophenyl)-2-(4-hydroxybutyl)-1H-pyrrol-3-yl]carbonyl}-4,4-difluoro-1,4′-bipiperidine-4′-carboxamide]
21 | 74 | 32 | 0.06 | NC(=O)C1(c2ccc(Cl)cc2)CCN(C(=O)c2cc(-c3ccc(Cl)cc3Cl)n(-c3ccc(Cl)cc3)c2CCCO)CC1 [compound 30, 4-(4-chlorophenyl)-1-{[1-(4-chlorophenyl)-5-(2,4-dichlorophenyl)-2-(3-hydroxypropyl)-1H-pyrrol-3-yl]carbonyl}piperidine-4-carboxamide]
